Data from ChEMBL document CHEMBL1124195, “Substituted benzamides with conformationally restricted side chains. 2. Indolizidine derivatives as central dopamine receptor antagonists” (J Med Chem, 1988).
Calls of active or inactive are those of the source. No cut-off for these calls is given here.

How the values were obtained:
[1] = test system: Mus musculus; assay: Evaluated for the antagonism of apomorphine-induced climbing behavior in mice (sc); assay type: functional
[2] = test system: Rattus norvegicus; assay: Evaluated for lowest active dose (LAD) for (gastric prokinetic activity) stimulation of intragastric pressure (IGP) in rats (sc); Inactive (0.5-10 mg/kg); assay type: functional, organism-based
[3] = test system: Rattus norvegicus; assay: Evaluated for lowest active dose (LAD) for (gastric prokinetic activity) stimulation of intragastric pressure (IGP) in rats (sc); assay type: functional
[4] = biological target: D(1A) dopamine receptor (Rattus norvegicus, UniProt P18901); assay: Binding affinity against Dopamine receptor D1 at 10e-3 M concentration using cis-[3H]flupenthixol in rat striatal tissue
Chain of D(1A) dopamine receptor (P18901 whole entry): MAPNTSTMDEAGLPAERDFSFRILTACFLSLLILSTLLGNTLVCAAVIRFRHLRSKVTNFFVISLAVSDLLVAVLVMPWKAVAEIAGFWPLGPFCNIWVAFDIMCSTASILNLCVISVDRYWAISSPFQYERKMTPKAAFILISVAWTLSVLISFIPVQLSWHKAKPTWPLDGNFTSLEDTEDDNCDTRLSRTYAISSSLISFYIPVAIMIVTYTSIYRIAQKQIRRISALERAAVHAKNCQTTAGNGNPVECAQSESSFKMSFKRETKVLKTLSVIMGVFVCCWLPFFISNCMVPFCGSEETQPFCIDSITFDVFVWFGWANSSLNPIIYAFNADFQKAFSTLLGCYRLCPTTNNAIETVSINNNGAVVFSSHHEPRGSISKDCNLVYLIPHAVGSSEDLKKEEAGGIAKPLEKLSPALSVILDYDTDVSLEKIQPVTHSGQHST

[5] = test system: Rattus norvegicus; assay: Compound was tested for inducing catalepsy 4 hr after dose administered intraperitoneally; assay type: functional; conditions: ip
[6] = biological target: D(2) dopamine receptor (Rattus norvegicus, UniProt P61169); assay: Binding affinity against Dopamine receptor D2 at 10e-3 M concentration using [3H]spiperone in rat striatal tissue
Chain of D(2) dopamine receptor (P61169 whole entry): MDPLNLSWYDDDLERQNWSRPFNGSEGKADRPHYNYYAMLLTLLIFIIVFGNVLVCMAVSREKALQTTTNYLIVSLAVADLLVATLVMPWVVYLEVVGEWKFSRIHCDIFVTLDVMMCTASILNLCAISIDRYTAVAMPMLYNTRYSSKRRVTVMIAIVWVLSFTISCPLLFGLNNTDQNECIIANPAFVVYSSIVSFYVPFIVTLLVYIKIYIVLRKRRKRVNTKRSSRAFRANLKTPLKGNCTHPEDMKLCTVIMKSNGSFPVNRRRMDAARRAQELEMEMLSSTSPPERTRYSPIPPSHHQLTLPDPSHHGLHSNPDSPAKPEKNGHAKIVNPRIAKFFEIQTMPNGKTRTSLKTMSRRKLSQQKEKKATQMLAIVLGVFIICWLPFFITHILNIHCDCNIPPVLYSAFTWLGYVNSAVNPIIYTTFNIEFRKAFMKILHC

[7] = test system: Rattus norvegicus; assay: Effective concentration for inhibition of amphetamine-induced locomotor activity in rats 4 hr after dosing administered intraperitoneally; assay type: functional; conditions: ip

SMILES	ED50 [1]	LAD [2]	other results
COc1cc(N)c(Cl)cc1C(=O)NC1CCN2CC(c3ccccc3F)CC2C1 (centres undefined)	0.03 mg/kg		
COc1cc(N)c(Cl)cc1C(=O)NC1CCN2C[C@@H](c3ccccc3)CC2C1 (some centres undefined)	0.024 mg/kg	inactive	
COc1cc(N)c(Cl)cc1C(=O)NC1CCN2C[C@@H](c3ccccc3)CCC2C1 (some centres undefined)	> 1 mg/kg	inactive	
COc1cc(N)c(Cl)cc1C(=O)NC1CCN(Cc2ccccc2)CC1 [CLEBOPRIDE]	0.037 mg/kg		LAD [3]: 1 mg/kg
COc1cc(N)c(Cl)cc1C(=O)NC1CC(C)N2CC(c3ccccc3)CC2C1 (centres undefined)	0.4 mg/kg	inactive	
COc1cc(N)c(Cl)cc1C(=O)NC1CCN2CC(C)(c3ccccc3)CC2C1 (centres undefined)	0.078 mg/kg	inactive	Ki [4]: > 10000 nM; ED50 [5]: 3.4 mg/kg; Ki [6]: 250 nM; ED50 [7]: 0.02 mg/kg
COc1cc(N)c(Cl)cc1C(=O)NC1CCN2C[C@H](c3ccccc3)CCC2C1 (some centres undefined)	> 1 mg/kg	inactive	
CCN(CC)CCNC(=O)c1cc(Cl)c(N)cc1OC [METOCLOPRAMIDE]	0.75 mg/kg		LAD [3]: 1 mg/kg
COc1cc(N)c(Cl)cc1C(=O)NC1CCN2C[C@H](c3ccccc3)CC2C1 (some centres undefined)	> 3 mg/kg		LAD [3]: 1 mg/kg
COc1cc(N)c(Cl)cc1C(=O)NC1CCN2CC(c3ccc(F)cc3)CC2C1 (centres undefined)	0.015 mg/kg		
COc1cc(N)c(Cl)cc1C(=O)NC1CCN2CC(c3ccccc3)(c3ccccc3)CC2C1 (centres undefined)	> 1 mg/kg	inactive	
